Test results published in the supplement of paper PMC10307832.

Legend:
Experiment in all cases: relative viability (nuclei count vs DMSO), 5 days (fraction); higher = more cells survive
FH535 + OSI-027 = compound: CC1=C(C=CC(=C1)[N+](=O)[O-])NS(=O)(=O)C2=C(C=CC(=C2)Cl)Cl [FH535] + COc1cccc2cc(-c3nc([C@H]4CC[C@H](C(=O)O)CC4)n4ncnc(N)c34)[nH]c12 [OSI-027] (partner 0.5 µM)
How it was run: (§1)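 Relative viability divides the nuclei count in treated wells by that in vehicle wells. Lung cancer cell lines were seeded in 1536-well plates, dosed by pin tool the next day, and fixed and stained after 5 days in one step with final 0.05% Triton X-100, 1% formaldehyde and 1 ug/ml Hoechst. Dosing was a single drug or a fixed anchor-drug dose plus five library-drug doses (not always all listed) in √10 steps, and values are medians of duplicate plates imaged at 4×.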

FH535 + Trametinib = compound: CC1=C(C=CC(=C1)[N+](=O)[O-])NS(=O)(=O)C2=C(C=CC(=C2)Cl)Cl [FH535] + CC(=O)Nc1cccc(-n2c(=O)n(C3CC3)c(=O)c3c(Nc4ccc(I)cc4F)n(C)c(=O)c(C)c32)c1 [Trametinib] (partner 0.02 µM)
How it was run: as §1

FH535 + Vorinostat = compound: CC1=C(C=CC(=C1)[N+](=O)[O-])NS(=O)(=O)C2=C(C=CC(=C2)Cl)Cl [FH535] + O=C(CCCCCCC(=O)Nc1ccccc1)NO [Vorinostat] (partner 1 µM)
How it was run: as §1

FH535 + AZD7762 = compound: CC1=C(C=CC(=C1)[N+](=O)[O-])NS(=O)(=O)C2=C(C=CC(=C2)Cl)Cl [FH535] + NC(=O)Nc1cc(-c2cccc(F)c2)sc1C(=O)N[C@H]1CCCNC1 [AZD7762] (partner 0.2 µM)
How it was run: as §1

FH535 + Luminespib = compound: CC1=C(C=CC(=C1)[N+](=O)[O-])NS(=O)(=O)C2=C(C=CC(=C2)Cl)Cl [FH535] + CCNC(=O)c1noc(-c2cc(C(C)C)c(O)cc2O)c1-c1ccc(CN2CCOCC2)cc1 [Luminespib] (partner 0.01 µM)
How it was run: as §1

Row | Cell Line | relative viability (FH535 + OSI-027; first compound 0.04 µM) | relative viability (FH535 + OSI-027; first compound 0.1265 µM) | relative viability (FH535 + OSI-027; first compound 0.4 µM) | relative viability (FH535 + OSI-027; first compound 1.265 µM) | relative viability (FH535 + Trametinib; first compound 0.04 µM) | relative viability (FH535 + Trametinib; first compound 0.1265 µM) | relative viability (FH535 + Trametinib; first compound 0.4 µM) | relative viability (FH535 + Trametinib; first compound 1.265 µM) | relative viability (FH535 + Vorinostat; first compound 0.04 µM) | relative viability (FH535 + Vorinostat; first compound 0.1265 µM) | relative viability (FH535 + Vorinostat; first compound 0.4 µM) | relative viability (FH535 + Vorinostat; first compound 1.265 µM) | relative viability (FH535 + AZD7762; first compound 0.04 µM) | relative viability (FH535 + AZD7762; first compound 0.1265 µM) | relative viability (FH535 + AZD7762; first compound 0.4 µM) | relative viability (FH535 + AZD7762; first compound 1.265 µM) | relative viability (FH535 + Luminespib; first compound 0.04 µM) | relative viability (FH535 + Luminespib; first compound 0.1265 µM) | relative viability (FH535 + Luminespib; first compound 0.4 µM) | relative viability (FH535 + Luminespib; first compound 1.265 µM)
1 | HCC-366 | 0.695 | 0.862 | 1.09 | 0.756 | 0.379 | 0.387 | 0.274 | 0.34 | 0.131 | 0.416 | 0.34 | 0.261 | 0.244 | 0.289 | 0.307 | 0.247 | – | – | – | –
2 | HCC-827 | 0.798 | 0.821 | 0.754 | 0.664 | 0.504 | 0.545 | 0.538 | 0.42 | 0.701 | 0.846 | 0.869 | 0.664 | 0.203 | 0.205 | 0.278 | 0.221 | 0.676 | 0.794 | 0.682 | 0.336
3 | HOP-62 | 0.77 | 0.779 | 0.678 | 0.713 | 0.374 | 0.373 | 0.391 | 0.355 | 0.5 | 0.681 | 0.557 | 0.563 | 0.473 | 0.66 | 0.416 | 0.55 | 0.695 | 0.98 | 0.831 | 0.707
4 | IA-LM | – | – | – | – | – | – | – | – | 0.999 | 1.14 | 0.954 | 0.914 | – | – | – | – | – | – | – | –
5 | LC-2-ad | 0.66 | 0.799 | 0.796 | 0.577 | 0.886 | 0.878 | 0.88 | 0.766 | 0.603 | 0.714 | 0.677 | 0.521 | 0.809 | 0.828 | 0.744 | 0.697 | 0.967 | 1.16 | 1.03 | 0.755
6 | LCLC-97TM1 | 0.431 | 0.49 | 0.441 | 0.395 | 0.175 | 0.191 | 0.178 | 0.203 | 0.203 | 0.568 | 0.706 | 0.745 | 0.127 | 0.276 | 0.278 | 0.227 | 0.736 | 0.763 | 0.742 | 0.436
7 | LCLC-103H | 0.448 | 0.383 | 0.341 | 0.42 | 0.711 | 0.665 | 0.707 | 0.5 | 0.569 | 0.781 | 0.694 | 0.666 | 0.737 | 0.734 | 0.744 | 0.67 | 0.936 | 1.02 | 0.862 | 0.616
8 | NCI-H520 | 0.199 | 0.286 | 0.296 | 0.192 | 0.703 | 0.691 | 0.696 | 0.684 | 0.546 | 0.723 | 0.81 | 0.714 | – | – | – | – | 0.159 | 0.212 | 0.257 | 0.24
9 | NCI-H661 | 0.688 | 0.704 | 0.67 | 0.46 | 0.526 | 0.686 | 0.553 | 0.365 | 0.745 | 0.821 | 0.799 | 0.687 | – | – | – | – | 0.893 | 0.928 | 0.841 | 0.56
10 | NCI-H1563 | 0.736 | 0.701 | 0.801 | 0.678 | – | – | – | – | – | – | – | – | – | – | – | – | 0.491 | 0.556 | 0.615 | 0.52
11 | NCI-H1650 | 0.558 | 0.591 | 0.456 | 0.523 | 0.476 | 0.714 | 0.459 | 0.584 | 0.492 | 0.564 | 0.509 | 0.441 | – | – | – | – | 0.175 | 0.218 | 0.201 | 0.189
12 | NCI-H1703 | – | – | – | – | – | – | – | – | – | – | – | – | 0.127 | 0.136 | 0.109 | 0.132 | – | – | – | –
13 | NCI-H1792 | 0.636 | 0.661 | 0.667 | 0.524 | 0.493 | 0.504 | 0.455 | 0.394 | – | – | – | – | 0.646 | 0.79 | 0.539 | 0.577 | 0.441 | 0.433 | 0.436 | 0.263
14 | NCI-H2009 | 0.58 | 0.627 | 0.566 | 0.486 | 0.306 | 0.316 | 0.251 | 0.24 | 0.732 | 0.762 | 0.693 | 0.602 | – | – | – | – | 0.996 | 1.02 | 0.938 | 0.686
15 | NCI-H2023 | 0.362 | 0.406 | 0.385 | 0.331 | 0.542 | 0.641 | 0.598 | 0.44 | 0.473 | 0.703 | 0.663 | 0.537 | – | – | – | – | 0.838 | 0.704 | 0.681 | 0.64
16 | NCI-H2228 | 0.487 | 0.71 | 0.658 | 0.522 | 0.376 | 0.368 | 0.464 | 0.413 | 0.585 | 0.698 | 0.977 | 0.593 | – | – | – | – | 0.127 | 0.152 | 0.156 | 0.0969
17 | SK-LU-1 | 0.359 | 0.347 | 0.324 | 0.235 | 0.476 | 0.49 | 0.501 | 0.418 | 0.731 | 0.814 | 0.736 | 0.456 | – | – | – | – | 0.181 | 0.21 | 0.198 | 0.214
18 | SK-MES-1 | 0.679 | 0.573 | 0.565 | 0.435 | 0.503 | 0.541 | 0.577 | 0.552 | 1.1 | 1.19 | 1.02 | 0.918 | – | – | – | – | 0.814 | 0.907 | 0.797 | 0.56
19 | SW 1573 | 0.601 | 0.613 | 0.67 | 0.445 | 0.686 | 0.528 | 0.651 | 0.376 | 0.614 | 0.666 | 1.04 | 0.66 | – | – | – | – | 0.237 | 0.346 | 0.193 | 0.638
20 | UMC-11 | 0.413 | 0.561 | 0.431 | 0.416 | 0.663 | 0.525 | 0.576 | 0.684 | 0.346 | 0.384 | 0.309 | 0.469 | – | – | – | – | 1.12 | 1.03 | 1.02 | 0.763
